Read-outs that look alike come from different tables or passages of the source.

In general, IC50 refers to the concentration needed to halve the response being measured.

The target of assay [1] is Tb-labeled inactive PDGFRβ (Homo sapiens (Human), UniProt P09619). As to the kind of experiment: PDGFRβ LanthaScreen Assay. As to conditions: read-out: PDGFR Lantha IC50. The format is binding. For orientation: Time-resolved FRET reads energy transfer from a long-lived donor to a nearby acceptor.
Assay [2] addresses PDGFRβ (Rattus norvegicus (Rat), UniProt Q05030). The experiment in a line: PDGFRβ Cellular Assay (PDGFRb P-Y751 HTRF in A10 cells stimulated with PDGF-BB). In kind it is cell-based. The essentials: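 Rat A10 cells, plated overnight, were treated with compound for 3 hours, then stimulated with PDGF-BB (working stock 100 ng/mL in 10% FBS medium). After lysis, PDGFRβ P-Y751 was detected by HTRF.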

In assay [3] the target is VEGFR2, unphosphorylated (Homo sapiens (Human), UniProt P35968). The experiment in a line: VEGFR ADP GLO Assay. In kind it is biochemical.
Sequence of VEGFR2, unphosphorylated (P35968 20-1356): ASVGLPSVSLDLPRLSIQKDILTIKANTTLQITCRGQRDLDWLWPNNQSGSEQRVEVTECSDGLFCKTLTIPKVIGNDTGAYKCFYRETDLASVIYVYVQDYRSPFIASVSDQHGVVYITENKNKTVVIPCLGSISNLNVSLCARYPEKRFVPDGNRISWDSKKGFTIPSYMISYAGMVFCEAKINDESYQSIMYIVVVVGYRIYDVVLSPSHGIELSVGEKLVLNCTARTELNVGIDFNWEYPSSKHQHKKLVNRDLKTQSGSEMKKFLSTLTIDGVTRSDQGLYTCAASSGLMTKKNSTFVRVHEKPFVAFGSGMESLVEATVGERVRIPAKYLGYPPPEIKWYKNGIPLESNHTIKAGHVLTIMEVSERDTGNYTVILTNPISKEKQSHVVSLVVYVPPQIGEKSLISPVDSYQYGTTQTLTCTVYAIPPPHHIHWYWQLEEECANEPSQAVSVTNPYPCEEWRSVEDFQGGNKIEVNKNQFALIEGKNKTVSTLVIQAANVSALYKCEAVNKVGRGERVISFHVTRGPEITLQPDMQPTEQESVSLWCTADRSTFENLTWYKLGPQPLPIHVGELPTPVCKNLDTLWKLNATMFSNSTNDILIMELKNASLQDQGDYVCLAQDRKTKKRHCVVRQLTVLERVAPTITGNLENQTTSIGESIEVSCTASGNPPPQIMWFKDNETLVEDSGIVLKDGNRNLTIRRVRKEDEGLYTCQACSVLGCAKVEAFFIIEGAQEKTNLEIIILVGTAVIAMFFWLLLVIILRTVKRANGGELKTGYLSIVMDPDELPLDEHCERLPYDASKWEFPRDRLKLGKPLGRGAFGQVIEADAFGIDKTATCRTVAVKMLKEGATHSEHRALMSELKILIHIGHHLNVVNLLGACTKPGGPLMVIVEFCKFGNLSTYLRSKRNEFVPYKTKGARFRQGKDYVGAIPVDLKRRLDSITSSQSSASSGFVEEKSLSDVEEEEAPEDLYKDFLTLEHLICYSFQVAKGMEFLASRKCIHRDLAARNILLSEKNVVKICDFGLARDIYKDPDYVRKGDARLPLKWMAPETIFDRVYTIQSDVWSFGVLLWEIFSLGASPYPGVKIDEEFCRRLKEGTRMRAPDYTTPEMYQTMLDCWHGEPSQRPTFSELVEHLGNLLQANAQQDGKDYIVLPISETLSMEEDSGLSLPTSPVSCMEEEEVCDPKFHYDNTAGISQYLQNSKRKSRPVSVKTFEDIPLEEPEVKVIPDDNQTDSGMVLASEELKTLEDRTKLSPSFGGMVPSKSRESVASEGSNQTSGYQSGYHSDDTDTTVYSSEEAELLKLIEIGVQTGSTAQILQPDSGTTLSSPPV

Sequence of PDGFRβ (Q05030 32-1097): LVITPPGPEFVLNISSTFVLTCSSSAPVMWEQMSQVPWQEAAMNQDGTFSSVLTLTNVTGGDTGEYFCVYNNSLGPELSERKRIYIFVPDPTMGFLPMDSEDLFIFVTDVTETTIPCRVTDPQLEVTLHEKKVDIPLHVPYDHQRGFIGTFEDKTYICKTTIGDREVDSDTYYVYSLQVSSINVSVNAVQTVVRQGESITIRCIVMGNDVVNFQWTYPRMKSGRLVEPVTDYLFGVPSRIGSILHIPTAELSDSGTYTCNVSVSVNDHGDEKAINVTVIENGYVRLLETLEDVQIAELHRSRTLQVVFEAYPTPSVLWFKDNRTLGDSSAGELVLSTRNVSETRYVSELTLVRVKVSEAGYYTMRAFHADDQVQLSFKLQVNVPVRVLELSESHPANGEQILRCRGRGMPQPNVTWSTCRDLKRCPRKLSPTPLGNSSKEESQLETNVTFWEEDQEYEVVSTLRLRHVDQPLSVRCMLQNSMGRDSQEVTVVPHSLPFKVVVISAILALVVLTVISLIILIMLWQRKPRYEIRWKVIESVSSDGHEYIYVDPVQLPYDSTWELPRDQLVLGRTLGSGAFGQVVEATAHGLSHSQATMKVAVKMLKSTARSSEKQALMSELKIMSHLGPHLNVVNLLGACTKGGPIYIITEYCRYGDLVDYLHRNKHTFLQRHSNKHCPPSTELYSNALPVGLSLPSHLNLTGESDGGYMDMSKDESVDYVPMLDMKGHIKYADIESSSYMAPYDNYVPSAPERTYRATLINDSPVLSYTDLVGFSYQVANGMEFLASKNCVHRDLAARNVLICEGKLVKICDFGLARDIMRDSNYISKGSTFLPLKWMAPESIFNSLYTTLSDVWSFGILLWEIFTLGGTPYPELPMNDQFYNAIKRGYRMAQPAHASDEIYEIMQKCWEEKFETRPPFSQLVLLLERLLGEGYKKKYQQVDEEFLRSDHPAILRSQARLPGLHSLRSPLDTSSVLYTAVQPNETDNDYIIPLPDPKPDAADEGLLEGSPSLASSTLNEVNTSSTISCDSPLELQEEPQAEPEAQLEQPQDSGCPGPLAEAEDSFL
Sequence of Tb-labeled inactive PDGFRβ (P09619 33-1106): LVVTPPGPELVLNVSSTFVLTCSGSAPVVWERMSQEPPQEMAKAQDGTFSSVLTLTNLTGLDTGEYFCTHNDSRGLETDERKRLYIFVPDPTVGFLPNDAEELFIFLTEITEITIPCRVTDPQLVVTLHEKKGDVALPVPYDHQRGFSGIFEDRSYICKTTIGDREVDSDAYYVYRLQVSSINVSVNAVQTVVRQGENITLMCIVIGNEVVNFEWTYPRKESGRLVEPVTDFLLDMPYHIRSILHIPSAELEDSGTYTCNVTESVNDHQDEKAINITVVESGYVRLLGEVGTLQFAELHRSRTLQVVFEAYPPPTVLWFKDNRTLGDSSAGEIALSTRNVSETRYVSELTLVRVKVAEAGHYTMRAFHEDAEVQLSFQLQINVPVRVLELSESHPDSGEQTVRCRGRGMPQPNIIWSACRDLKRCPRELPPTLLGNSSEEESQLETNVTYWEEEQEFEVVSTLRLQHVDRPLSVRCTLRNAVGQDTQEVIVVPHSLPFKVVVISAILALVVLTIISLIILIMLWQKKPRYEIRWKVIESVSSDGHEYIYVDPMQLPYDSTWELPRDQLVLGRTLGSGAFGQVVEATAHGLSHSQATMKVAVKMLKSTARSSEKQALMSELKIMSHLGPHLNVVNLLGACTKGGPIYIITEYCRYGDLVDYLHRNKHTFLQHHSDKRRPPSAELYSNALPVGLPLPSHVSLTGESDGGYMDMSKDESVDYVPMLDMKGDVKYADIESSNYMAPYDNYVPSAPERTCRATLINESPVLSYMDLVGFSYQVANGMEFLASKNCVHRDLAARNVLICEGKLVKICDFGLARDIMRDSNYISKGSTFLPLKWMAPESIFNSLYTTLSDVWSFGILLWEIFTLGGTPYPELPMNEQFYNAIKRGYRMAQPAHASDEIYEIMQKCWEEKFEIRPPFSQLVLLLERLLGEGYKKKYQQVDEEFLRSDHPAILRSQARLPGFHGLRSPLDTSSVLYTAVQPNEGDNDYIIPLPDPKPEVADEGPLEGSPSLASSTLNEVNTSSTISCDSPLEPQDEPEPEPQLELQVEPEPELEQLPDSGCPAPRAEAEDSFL

Regarding `Cc1ncc(C(=O)NCCN2CCCC2(C)C)cc1NC(=O)c1cnn2cc(-n3ncc4cccnc43)sc12` [Example 217, N-(5-((2-(2,2-dimethylpyrrolidin-1-yl)ethyl)carbamoyl)-2-methylpyridin-3-yl)-2-(1H-pyrazolo[3,4-b]pyridin-1-yl)pyrazolo[5,1-b]thiazole-7-carboxamide], the IC50 is 0.0025 µM in assay [1], 0.0089 µM in assay [2] (read-out: PDGFR Cellular IC50) and above 7.5 µM in assay [3].
As to `Cc1ncc(C(=O)NCCN2CCCC2)cc1NC(=O)c1cnn2cc(-c3cn(C)nc3C)sc12` [Example 218, 2-(1,3-Dimethyl-1H-pyrazol-4-yl)-N-(2-methyl-5-((2-(pyrrolidin-1-yl)ethyl)carbamoyl)pyridin-3-yl)pyrazolo[5,1-b]thiazole-7-carboxamide], the IC50 was 0.0036 µM in assay [1], 0.0788 µM in assay [2] (read-out: PDGFR Cellular IC50) and above 7.5 µM in assay [3].
The like results for `Cc1ncc(C(=O)NCCN2CCCC2)cc1NC(=O)c1cnn2cc(-c3cnn(C)c3)sc12` [Example 219, 2-(1-Methyl-1H-pyrazol-4-yl)-N-(2-methyl-5-((2-(pyrrolidin-1-yl)ethyl)carbamoyl)pyridin-3-yl)pyrazolo[5,1-b]thiazole-7-carboxamide] were, in that order, 0.014 µM, 0.123 µM and above 7.5 µM.
For `Cc1ncc(C(=O)NCCN2CCCC2)cc1NC(=O)c1cnn2cc(-c3cnn(C)c3C)sc12` [Example 220, 2-(1,5-Dimethyl-1H-pyrazol-4-yl)-N-(2-methyl-5-((2-(pyrrolidin-1-yl)ethyl)carbamoyl)pyridin-3-yl)pyrazolo[5,1-b]thiazole-7-carboxamide], in that order: 0.005 µM, 0.059 µM and above 7.5 µM.
For `Cc1ncc(C(=O)NCCN2CCCC2(C)C)cc1NC(=O)c1cnn2cc(-c3cnn(CCC(O)CO)c3)sc12` (stereo not drawn) [Example 221, 2-(1-(3,4-Dihydroxybutyl)-1H-pyrazol-4-yl)-N-(5-((2-(2,2-dimethylpyrrolidin-1-yl)ethyl)carbamoyl)-2-methylpyridin-3-yl)pyrazolo[5,1-b]thiazole-7-carboxamide], in that order: 0.0071 µM, 1.71 µM and above 7.5 µM.
For the compound `Cc1ncc(C(=O)NCCN2CCCC2)cc1NC(=O)c1cnn2cc(-c3cnn(CCC(O)CO)c3)sc12` (stereo not drawn) [Example 222, 2-(1-(3,4-Dihydroxybutyl)-1H-pyrazol-4-yl)-N-(2-methyl-5-((2-(pyrrolidin-1-yl)ethyl)carbamoyl)pyridin-3-yl)pyrazolo[5,1-b]thiazole-7-carboxamide], the IC50 in assay [1] was 0.0165 µM; in assay [2] (read-out: PDGFR Cellular IC50) it was 0.989 µM; in assay [3], above 7.5 µM.
As for `Cc1ncc(C(=O)NCCN2CCCC2)cc1NC(=O)c1cnn2cc(-c3c(C)nn(C)c3C)sc12` [Example 223, N-(2-methyl-5-((2-(pyrrolidin-1-yl)ethyl)carbamoyl)pyridin-3-yl)-2-(1,3,5-trimethyl-1H-pyrazol-4-yl)pyrazolo[5,1-b]thiazole-7-carboxamide], the IC50 was 0.0057 µM in assay [1], 0.0695 µM in assay [2] (read-out: PDGFR Cellular IC50) and above 0.833 µM in assay [3].
For `Cc1ncc(C(=O)NCCN2CCCC2(C)C)cc1NC(=O)c1cnn2cc(-c3cn(C)nc3CO)sc12` [Example 224, N-(5-((2-(2,2-dimethylpyrrolidin-1-yl)ethyl)carbamoyl)-2-methylpyridin-3-yl)-2-(3-(hydroxymethyl)-1-methyl-1H-pyrazol-4-yl)pyrazolo[5,1-b]thiazole-7-carboxamide], in that order: 0.0112 µM, 0.903 µM and above 2.5 µM.
Consider `Cc1ncc(C(=O)NCCN2CCCC2)cc1NC(=O)c1cnn2cc(-c3cnn(CC(O)CO)c3)sc12` (stereo not drawn) [Example 225, 2-(1-(2,3-Dihydroxypropyl)-1H-pyrazol-4-yl)-N-(2-methyl-5-((2-(pyrrolidin-1-yl)ethyl)carbamoyl)pyridin-3-yl)pyrazolo[5,1-b]thiazole-7-carboxamide], for which the half-maximal inhibitory concentration (IC50) in assay [1] was 0.0122 µM; in assay [2] (read-out: PDGFR Cellular IC50) it was above 2 µM; in assay [3] it was above 7.5 µM.
Turning to `COc1ncccc1-c1cn2ncc(C(=O)Nc3cc(C(=O)NCCN4CCCC4(C)C)cnc3C)c2s1` [Example 226, N-(5-((2-(2,2-Dimethylpyrrolidin-1-yl)ethyl)carbamoyl)-2-methylpyridin-3-yl)-2-(2-methoxypyridin-3-yl)pyrazolo[5,1-b]thiazole-7-carboxamide], the values for the IC50 in assay [1], in assay [2] (read-out: PDGFR Cellular IC50) and in assay [3] were 0.0013 µM, 0.0032 µM and above 2.5 µM, respectively.
For `Cc1ncc(C(=O)NCCN2CCCC2)cc1NC(=O)c1cnn2cc(-c3cn(C)nc3C(F)(F)F)sc12` [Example 227, 2-(1-Methyl-3-(trifluoromethyl)-1H-pyrazol-4-yl)-N-(2-methyl-5-((2-(pyrrolidin-1-yl)ethyl)carbamoyl)pyridin-3-yl)pyrazolo[5,1-b]thiazole-7-carboxamide], in that order: 0.0213 µM, 0.438 µM and above 0.833 µM.
Consider `COc1ncccc1-c1cn2ncc(C(=O)Nc3cc(C(=O)NCCN4CCCC4C)cnc3C)c2s1` (stereo not drawn) [Example 228, 2-(2-Methoxypyridin-3-yl)-N-(2-methyl-5-((2-(2-methylpyrrolidin-1-yl)ethyl)carbamoyl)pyridin-3-yl)pyrazolo[5,1-b]thiazole-7-carboxamide], for which the IC50 in assay [1] was 0.0015 µM; in assay [2] (read-out: PDGFR Cellular IC50) it was 0.0056 µM; in assay [3], above 0.833 µM.
Turning to `COc1ncccc1-c1cn2ncc(C(=O)Nc3cc(C(=O)NCCN4CCCC4)cnc3C)c2s1` [Example 229, 2-(2-Methoxypyridin-3-yl)-N-(2-methyl-5-((2-(pyrrolidin-1-yl)ethyl)carbamoyl)pyridin-3-yl)pyrazolo[5,1-b]thiazole-7-carboxamide], the values for the IC50 in assay [1], in assay [2] (read-out: PDGFR Cellular IC50) and in assay [3] were 0.0016 µM, 0.0155 µM and above 0.833 µM, respectively.
For the compound `Cc1ncc(C(=O)NCCN2CCCC2(C)C)cc1NC(=O)c1cnn2cc(-c3cncc(S(C)(=O)=O)c3)sc12` [Example 230, N-(5-((2-(2,2-dimethylpyrrolidin-1-yl)ethyl)carbamoyl)-2-methylpyridin-3-yl)-2-(5-(methylsulfonyl)pyridin-3-yl)pyrazolo[5,1-b]thiazole-7-carboxamide], the half-maximal inhibitory concentration (IC50) in assay [1] is 0.0829 µM; in assay [2] (read-out: PDGFR Cellular IC50), 0.791 µM; in assay [3] it was above 2.5 µM.
With `Cc1ncc(C(=O)NCCN2CCCC2(C)C)cc1NC(=O)c1cnn2cc(-c3c(C)n[nH]c3C)sc12` [Example 231, 2-(3,5-Dimethyl-1H-pyrazol-4-yl)-N-(5-((2-(2,2-dimethylpyrrolidin-1-yl)ethyl)carbamoyl)-2-methylpyridin-3-yl)pyrazolo[5,1-b]thiazole-7-carboxamide], the IC50 in assay [1] was 0.0033 µM; in assay [2] (read-out: PDGFR Cellular IC50), 0.0731 µM; in assay [3], above 7.5 µM.
The like results for `Cc1ncc(NC(=O)CN2CCN(C)CC2)cc1NC(=O)c1cnn2cc(-c3cnn(C)c3)sc12` [Example 232, 2-(1-methyl-1H-pyrazol-4-yl)-N-(2-methyl-5-(2-(4-methylpiperazin-1-yl)acetamido)pyridin-3-yl)pyrazolo[5,1-b]thiazole-7-carboxamide] were, in that order, 0.751 µM, 1.73 µM and above 7.5 µM.
The like results for `COc1ncccc1-c1cn2ncc(C(=O)Nc3cc(NC(=O)CN4CCCC4(C)C)cnc3C)c2s1` [Example 233, N-(5-(2-(2,2-dimethylpyrrolidin-1-yl)acetamido)-2-methylpyridin-3-yl)-2-(2-methoxypyridin-3-yl)pyrazolo[5,1-b]thiazole-7-carboxamide] were, in that order, 0.0011 µM, 0.0013 µM and above 7.5 µM.
For `Cc1ncc(C(=O)NCCNCCO)cc1NC(=O)c1cnn2cc(-c3cnn(C)c3)sc12` [Example 234, N-(5-((2-((2-hydroxyethyl)amino)ethyl)carbamoyl)-2-methylpyridin-3-yl)-2-(1-methyl-1H-pyrazol-4-yl)pyrazolo[5,1-b]thiazole-7-carboxamide], in that order: 0.283 µM, above 3 µM and above 7.5 µM.
With `Cc1ncc(C(=O)NCCN(CCO)CC2CCCCC2)cc1NC(=O)c1cnn2cc(-c3cnn(C)c3)sc12` [Example 235, N-(5-((2-((cyclohexylmethyl)(2-hydroxyethyl)amino)ethyl)carbamoyl)-2-methylpyridin-3-yl)-2-(1-methyl-1H-pyrazol-4-yl)pyrazolo[5,1-b]thiazole-7-carboxamide], the results for the concentration for half-maximal inhibition (IC50) in assay [1], in assay [2] (read-out: PDGFR Cellular IC50) and in assay [3] were 0.0052 µM, 0.0095 µM and above 7.5 µM, respectively.
For `Cc1ncc(C(=O)NC[C@H]2CCCN2CCO)cc1NC(=O)c1cnn2cc(-c3cnn(C)c3)sc12` [Example 236, (R)—N-(5-(((1-(2-hydroxyethyl)pyrrolidin-2-yl)methyl)carbamoyl)-2-methylpyridin-3-yl)-2-(1-methyl-1H-pyrazol-4-yl)pyrazolo[5,1-b]thiazole-7-carboxamide], in that order: 0.0836 µM, 0.677 µM and above 2.5 µM.
In the case of `Cc1ncc(C(=O)NC2CN(C(C)(C)C)C2)cc1NC(=O)c1cnn2cc(-c3cnn(C)c3)sc12` [Example 237, N-(5-((1-(tert-butyl)azetidin-3-yl)carbamoyl)-2-methylpyridin-3-yl)-2-(1-methyl-1H-pyrazol-4-yl)pyrazolo[5,1-b]thiazole-7-carboxamide], the figures for the IC50 in assay [1], in assay [2] (PDGFR Cellular IC50) and in assay [3] were 0.0572 µM, 0.619 µM and above 7.5 µM, respectively.
On to `Cc1ncc(C(=O)NC2CN(C(C)(C)C)C2)cc1NC(=O)c1cnn2cc(-c3cccc4c3cnn4C)sc12` [Example 238, N-(5-((1-(tert-butyl)azetidin-3-yl)carbamoyl)-2-methylpyridin-3-yl)-2-(1-methyl-1H-indazol-4-yl)pyrazolo[5,1-b]thiazole-7-carboxamide], for which the IC50 in assay [1] was 0.0075 µM; in assay [2] (read-out: PDGFR Cellular IC50) it was 0.181 µM; in assay [3], above 2.5 µM.
